From paper PMC5295395, “Inhibition of PlexA1-mediated brain tumor growth and tumor-associated angiogenesis using a transmembrane domain targeting peptide” (Oncotarget, 2016)

Assays:
NRP1 TMD = assay: surface plasmon resonance (SPR, Biacore) with NRP1 TMD; assay type: binding; settings: Biacore 2000, 20°C, streptavidin CM5 chip, 10 mM HEPES pH 7.4, 150 mM NaCl, 0.005% P20, 3 mM LDAO, flow 5 μl/min
Description: A surface plasmon resonance (SPR, Biacore) analysis was also conducted with a synthetic biotinylated PlexA1 peptide immobilized on the chip. […] Due to the high hydrophobic nature and difficulty to produce TMD peptides we only performed this experiment with TMD peptides for which we had experience of successful synthesis. […]
assigned to the “highest Plxna1” group and conversely (Abcam, ab32960-100) was added to the sections in those with a Plxna1 expression below the median to the blocking solution at 4°C overnight at a dilution of 1/100.
“lowest Plxna1” group. […]
For the “TCGA dataset” [50, 51], data were The tissue was rinsed with PBS (3 × 5 minutes) and downloaded from the TCGA data portal (https://tcga- then the endogenous peroxidases were blocked with 1% data.nci.nih.gov/tcga/tcgaHome2.jsp; NCI, USA). RMA H2O2 solution (Sigma, #H1009) in methanol solution normalized gene expression profiles measured with during 20 minutes. […]
Factor (recombinant human) 0.1 ng/ml, Basic Fibroblast RNA was treated with DNase I (Invitrogen) and reverse Growth Factor (recombinant human) 1 ng/ml, Heparin 90 transcribed using the High Capacity cDNA RT Kit μg/ml, Hydrocortisone 1 μg / ml. […] Samples were analyzed using […]

VEGFR-2 phosphorylation = assay: ELISA of VEGFR-2 phosphorylation in HUVEC cells; assay type: cell-based, human; settings: VEGF 100 ng/ml
Description: (C) Rac-1 activation assay in resting condition and after Sema3A-induced Rac-1 activation in U373 MG cells. (D) Western blot analysis of phosphorylated Akt, total Akt and tubulin in U373MG cells treated with the vehicle (LDS 72 μM), Sema3A (100 ng/ml) or Sema3A + MTP-PlexA1 (10^−7 M). The lower panel is showing the quantification of the p-Akt/Akt ratio in the different conditions. (E) MTP-PlexA1 decreases VEGFR-2 phosphorylation induced by VEGF (100 ng/ml) in HUVEC cells.
PlexA1 is a Rho-GTPase activating protein. Consistently, it has been shown that in response to Sema3A, the Rho-GTPase Rac1 is activated and sequestered at the plasma membrane. […] Moreover, it has been shown that Sema3A inhibits Akt phosphorylation through binding of Rnd1 to PlexA1. […] From these experiments we concluded that MTP-PlexA1 is able to antagonize major signaling pathways of PlexA1 receptor.

[1] = test system: chick chorio-allantoic membrane blood vessels; assay: chick embryonic chorio-allantoic membrane assay; assay type: in vivo; settings: chick CAM, local deposition, 10^−7 M, 24 h incubation
Description: The CAM assay was performed using Leghorn eggs. After 4 days incubation at 37°C, the shells were opened and the embryos were transferred to a Petri dish. The CAMs were grown for additional 4 days before deposition of silicone reservoirs in a region containing one large vessel. Reservoirs were filled with 20 μl VEGF165 solution (20 μg/ml) or a combination of VEGF165 (20 μg/ml) + MTP-PlexA1 (10–7 M). After 24 h incubation, micro- photographs were taken for quantification of vessel growth. Camera lucida drawing was systematically performed to allow better counting of blood vessels and sprouting; the entire analysis being performed in blind conditions.

TLPAIVGIGGGGGLLLLVIVAVLIAYKRK [MTP-PlexA1, synthetic transmembrane peptide mimicking the TMD of PlexA1]
interaction of immobilized biotinylated PlexA1 TMD peptide with NRP1 (NRP1 TMD): significantly interacted with NRP1 | change of VEGF-induced phosphorylation of VEGFR-2 (VEGFR-2 phosphorylation): −26% | VEGFA-induced vascular growth and complexity [1]: significantly inhibited
